Experimental data taken from patent US10183006B2, “Methods of therapeutic monitoring of nitrogen scavenging drugs” (Horizon Therapeutics, LLC, priority 2011, dated 2019).

Assays:
[1] = Population PK model (NONMEM) and Monte Carlo dosing simulations in UCD patients; set-up: species or system human
Protocol: Diagnostic plots and statistical comparisons were used to select among candidate models, and covariates were assessed by graphical analyses and covariate modeling.

[2] = Illustrative UCD patient cases (Patients A, B, C): blood ammonia under nitrogen scavenging drug
Text: In certain embodiments of the methods disclosed herein, blood samples used for measuring fasting blood ammonia levels and/or ULN blood ammonias are venous blood samples. In certain embodiments, a blood sample is a plasma blood sample. Any methods known in the art may be used to obtain a plasma blood sample. For example, blood from a subject may be drawn into a tube containing heparin or ethylenediaminetetraacetic acid (EDTA). In certain embodiments, the sample can be placed on ice and centrifuged to obtain plasma within 15 minutes of collection, stored at 2-8° C. […] In other embodiments, the blood plasma sample is snap frozen, stored at ≤−18° C. […] In certain embodiments, blood samples are taken in a laboratory or hospital setting. In certain embodiments, a single fasting blood sample is used to measure fasting blood ammonia level. However, in other embodiments, multiple fasting blood samples may be obtained. In certain embodiments, a subject's blood ammonia level may be monitored throughout the day. Further, in certain embodiments, the methods disclosed herein comprise an additional step of obtaining one or more blood samples from a subject prior to or after measuring fasting blood ammonia level.
Measurement of ammonia levels in a fasting blood sample is carried out using techniques known in the art. For example, ammonia levels may be measured using a colorimetric reaction or an enzymatic reaction. In certain embodiments, a colorimetric reaction may involve the use of bromophenol blue as an ammonia indicator. In these embodiments, ammonia may react with bromophenol blue to yield a blue dye. In certain embodiments, an enzymatic reaction may involve glutamate dehydrogenase catalyzing the reductive amination of 2-oxoglutarate with NH^4+ and NADPH to form glutamate and NADP^+. The formation of NADP^+ formed is directly proportional to the amount of ammonia present in the blood sample. Therefore, the concentration of ammonia is measured based on a decrease in absorbance.
Initial dosage is determined based on body surface area or as otherwise instructed according to HPN-100 drug labeling.

[3] = Two long term studies, HPN-100 for 12 months in pediatric UCD patients: monthly fasting ammonia and hyperammonemia episodes; format: in vivo, human
Text: The relationship between reducing ammonia burden by maintaining fasting ammonia at or close to half ULN and neuropsychological outcomes in pediatric UCD patients was explored in clinical trials. […] These patients underwent 24-hr serial sample collection in a confined setting where the last sample at 24 hr was considered fasting and under supervision of the study personnel. At the end of treatment with HPN-100 the average fasting ammonia at 24-hr time point was 15.5 μmol/L or less than half ULN, indicating good clinical control. These 11 patients along with another 15 pediatric patients were enrolled in two long term studies and received HPN-100 for 12 months, during which monthly fasting ammonia were collected. At the time of enrollment and at the end of the study, all patients underwent assessment for neuropsychological outcomes including the following: BRIEF (Behavior Rating Inventory of Executive Function) to assess day-to-day executive functioning, CBCL (Child Behavior Checklist) to evaluate internalizing (e.g., mood/anxiety) and externalizing behaviors, and WASI (Wechsler Abbreviated Scale of Intelligence) to estimate of intellectual ability. […]

[4] = HPN-100 in subjects with hepatic impairment with cirrhosis and healthy adults (Study UP 1204-002): urinary excretion; format: in vivo, human; details: for PAGN Proportion excreted post-24 hours (%), of total PAGN eliminated over 48 hours: after dosing on day 1
Protocol: (§1) To determine its pharmacokinetic (PK) and pharmacodynamic (PD) profile in patients with liver disease, clinical testing was conducted in which HPN-100 was administered orally as a single dose (100 mg/kg/day on day 1), and twice daily for 7 consecutive days (200 mg/kg/day on days 8 through 14, in two doses of 100 mg/kg per dose), to subjects with hepatic impairment with cirrhosis (Child-Pugh scores of A, B, or C) and to a gender and age-matched control group of healthy adults with normal hepatic function. On day 15, subjects received a single dose of HPN-100 (100 mg/kg). PK blood samples were taken pre-dose, at 15 and 30 minutes post-dose, and at 1, 1.5, 2, 3, 4, 6, 8, 12, and 24 hours post-dose on days 1, 8, and 15, and at 48 hours after dosing on days 1 and 15. On days 9-14, blood samples were taken pre-morning dose and at 2 hours post-morning dose. Urine was collected 0-4, 4-8, 8-12, and 12-24 hours post-dose on days 1, 8, and 15, and at 24-48 hours post-dose on days 1 and 15.

[5] = Short term switch over comparison of NaPBA and HPN-100 in controlling ammonia, 24-hr serial sampling, pediatric UCD patients; format: in vivo, human; details: end of treatment with HPN-100; 11 pediatric UCD patients ages 6-17
Text: (§2) The relationship between reducing ammonia burden by maintaining fasting ammonia at or close to half ULN and neuropsychological outcomes in pediatric UCD patients was explored in clinical trials. […] These patients underwent 24-hr serial sample collection in a confined setting where the last sample at 24 hr was considered fasting and under supervision of the study personnel. At the end of treatment with HPN-100 the average fasting ammonia at 24-hr time point was 15.5 μmol/L or less than half ULN, indicating good clinical control. These 11 patients along with another 15 pediatric patients were enrolled in two long term studies and received HPN-100 for 12 months, during which monthly fasting ammonia were collected. At the time of enrollment and at the end of the study, all patients underwent assessment for neuropsychological outcomes including the following: BRIEF (Behavior Rating Inventory of Executive Function) to assess day-to-day executive functioning, CBCL (Child Behavior Checklist) to evaluate internalizing (e.g., mood/anxiety) and externalizing behaviors, and WASI (Wechsler Abbreviated Scale of Intelligence) to estimate of intellectual ability.

[6] = Neuropsychological outcomes (BRIEF, CBCL, WASI) after 12 months HPN-100 in pediatric UCD patients; format: in vivo, human
Text: as §2
In pediatric patients, WASI and CBCL scores were stable in comparison to baseline. The majority of the BRIEF subscales at baseline were at or close to 65, consistent with borderline and/or clinically significant dysfunction. Among 22 pediatric subjects who completed the neuropsychological testing at 12 months, all BRIEF domains were improved (lower T scores) with means (SD) at end of study compared to baseline for Behavioral Regulation Index 53.7 (9.79) vs. 60.4 (14.03) (p<0.05); Metacognition Index 57.5 (9.84) vs. 67.5 (13.72) (p<0.001), and Global Executive Scale 56.5 (9.71) vs. 66.2 (14.02) (p<0.001).

[7] = Relationship between PAA levels and neurological AEs in UCD patients (switchover and 12-month protocols); format: in vivo, human; details: short term switchover
[8] = HPN-100 in subjects with hepatic impairment with cirrhosis and healthy adults: plasma metabolites; format: in vivo, human; details: all plasma samples, all subject groups
Protocol: as §1

[9] = Patient A, 3 mL dose with each meal
[10] = after dosing on day 1 (0-48 hours), Child-Pugh A
[11] = after dosing on day 1 (0-48 hours), Child-Pugh B
[12] = after dosing on day 1 (0-48 hours), Child-Pugh C
[13] = after dosing on day 1 (0-48 hours), Healthy Volunteers

O=C(CCCc1ccccc1)OCC(COC(=O)CCCc1ccccc1)OC(=O)CCCc1ccccc1 [HPN-100, glyceryl tri-[4-phenylbutyrate]]
fractional presystemic metabolism of PBA ([1]; adults): 43%
slower PBA absorption when delivered as GPB vs. NaPBA ([1]; final popPK model): ~60%
fractional presystemic metabolism of PBA ([1]; pediatric patients): 14%
fasting blood ammonia level ([2]; Patient A, adult UCD, 9 mL/day for at least 7 days, 52 μmol/L before treatment): 33 µmol/L
average daily ammonia [2, 9]: 66 µmol/L
maximum ammonia after dinner [2, 9]: 95 µmol/L
fasting ammonia level ([2]; Patient A, 12 mL total or 4 mL TID for at least 7 days): 15 µmol/L
fasting blood ammonia level ([2]; Patient B, 3.5 mL 3 times a day for at least 7 days): 17 µmol/L
episodes of acute hyperammonemia ([3]; during 12 month treatment, pediatric UCD patients, 9 in the 12 months before enrollment): 5
peak ammonia, mean ([3]; during the 12 month study, 233 μmol/L before enrollment): 166 µmol/L
urinary PAGN Amount Excreted ([4]; after dosing on day 1 (0-24 hours), Child-Pugh A (n = 8)): 15553 µmol
urinary PAGN Amount Excreted ([4]; after dosing on day 1 (0-24 hours), Child-Pugh B (n = 8)): 16847 µmol
urinary PAGN Amount Excreted ([4]; after dosing on day 1 (0-24 hours), Child-Pugh C (n = 8)): 19291 µmol
urinary PAGN Amount Excreted ([4]; after dosing on day 1 (0-24 hours), Healthy Volunteers (n = 8)): 14903 µmol
PAGN Mole % of dose excreted [4, 10]: 47.1 Mole %
urinary PAGN Amount Excreted [4, 10]: 18386 µmol
PAGN Mole % of dose excreted [4, 11]: 44.9 Mole %
urinary PAGN Amount Excreted [4, 11]: 19902 µmol
PAGN Mole % of dose excreted [4, 12]: 48.5 Mole %
urinary PAGN Amount Excreted [4, 12]: 20854 µmol
PAGN Mole % of dose excreted [4, 13]: 42.2 Mole %
urinary PAGN Amount Excreted [4, 13]: 17869 µmol
PAGN Proportion excreted post-24 hours (%), of total PAGN eliminated over 48 hours ([4]; Child-Pugh A): 15.5%
PAGN Proportion excreted post-24 hours (%), of total PAGN eliminated over 48 hours ([4]; Child-Pugh B): 14.5%
PAGN Proportion excreted post-24 hours (%), of total PAGN eliminated over 48 hours ([4]; Child-Pugh C): 8.8%
PAGN Proportion excreted post-24 hours (%), of total PAGN eliminated over 48 hours ([4]; Healthy Volunteers): 16.9%
urinary PAGN Amount Excreted ([4]; after dosing on day 8 (0-12 hours), after first 100 mg/kg morning dose, Child-Pugh A): 16068 µmol
urinary PAGN Amount Excreted ([4]; after dosing on day 8 (0-12 hours), after first 100 mg/kg morning dose, Child-Pugh B): 13179 µmol
urinary PAGN Amount Excreted ([4]; after dosing on day 8 (0-12 hours), after first 100 mg/kg morning dose, Child-Pugh C): 15428 µmol
urinary PAGN Amount Excreted ([4]; after dosing on day 8 (0-12 hours), after first 100 mg/kg morning dose, Healthy Volunteers): 10195 µmol
PAGN Mole % of dose excreted ([4]; after dosing on day 8 (0-12 hours), Child-Pugh A): 40.6 Mole %
PAGN Mole % of dose excreted ([4]; after dosing on day 8 (0-12 hours), Child-Pugh B): 29.9 Mole %
PAGN Mole % of dose excreted ([4]; after dosing on day 8 (0-12 hours), Child-Pugh C): 44.6 Mole %
PAGN Mole % of dose excreted ([4]; after dosing on day 8 (0-12 hours), Healthy Volunteers): 24.5 Mole %
PAGN Mole % of dose excreted ([4]; after dosing on day 15 (0-48 hours), % of the single morning dose of day 15, Child-Pugh A): 79.6 Mole %
PAGN Mole % of dose excreted ([4]; after dosing on day 15 (0-48 hours), % of the single morning dose of day 15, Child-Pugh B): 58.2 Mole %
PAGN Mole % of dose excreted ([4]; after dosing on day 15 (0-48 hours), % of the single morning dose of day 15, Child-Pugh C): 85.0 Mole %
PAGN Mole % of dose excreted ([4]; after dosing on day 15 (0-48 hours), % of the single morning dose of day 15, Healthy Volunteers): 68.6 Mole %
urinary PAGN Amount Excreted ([4]; after dosing on day 15 (0-48 hours), Child-Pugh A): 31431 µmol
urinary PAGN Amount Excreted ([4]; after dosing on day 15 (0-48 hours), Child-Pugh B): 25152 µmol
urinary PAGN Amount Excreted ([4]; after dosing on day 15 (0-48 hours), Child-Pugh C): 30752 µmol
urinary PAGN Amount Excreted ([4]; after dosing on day 15 (0-48 hours), Healthy Volunteers): 28716 µmol
average conversion of HPN-100 to PAGN ([4]; after single dose administration, cirrhosis and healthy volunteers): 40-50%
HPN-100 dose administered excreted as PAGN ([4]; day 1): 42-49%
HPN-100 dose administered excreted as PAGN ([4]; day 8): 25-45%
HPN-100 dose administered excreted as PAGN ([4]; day 15): 58-85%
effect of hepatic impairment on ammonia-scavenging ability ([4]; urinary PAGN excretion, Child-Pugh groups vs healthy volunteers): no significant effect
average fasting ammonia at 24-hr time point [5]: 15.5 µmol/L
BRIEF Behavioral Regulation Index, T score mean (SD) at end of study ([6]; 22 pediatric subjects, baseline 60.4 (14.03), p<0.05): 53.7 (9.79)
BRIEF Global Executive Scale, T score mean (SD) at end of study ([6]; 22 pediatric subjects, baseline 66.2 (14.02), p<0.001): 56.5 (9.71)
BRIEF Metacognition Index, T score mean (SD) at end of study ([6]; 22 pediatric subjects, baseline 67.5 (13.72), p<0.001): 57.5 (9.84)
WASI and CBCL scores in comparison to baseline ([6]; pediatric patients): stable
relationship between neurological AEs and PAA levels [7]: No statistically significant relationship

O=C(O)CNC(=O)Cc1ccccc1 [PAG, phenylacetyl glycine]
alternative HPN-100 metabolite level in plasma [8]: below the limit of quantification

O=C(O)CNC(=O)CCCc1ccccc1 [PBG, phenylbutyryl glycine]
alternative HPN-100 metabolite level in plasma [8]: below the limit of quantification

NC(=O)CC[C@H](NC(=O)CCCc1ccccc1)C(=O)O [PBGN, phenylbutyryl glutamine]
alternative HPN-100 metabolite level in plasma [8]: below the limit of quantification

O=C([O-])c1ccccc1.[Na+] [sodium benzoate, reference compound]
fasting blood ammonia level ([2]; Patient C, adult UCD, 15 g/day for at least 7 days, 77 μmol/L before treatment): 35 µmol/L
fasting ammonia level ([2]; Patient C, 18 grams per day for at least 7 days): 15 µmol/L

sodium phenylbutyrate [NaPBA, reference compound]
fractional presystemic metabolism of PBA ([1]; adults): 23%
fractional presystemic metabolism of PBA ([1]; pediatric patients): 43%
fasting blood ammonia level ([2]; Patient B, 11-year UCD patient, 24 pills per day, suspected noncompliant): 40 µmol/L
relationship between neurological AEs and PAA levels [7]: No statistically significant relationship
